The target of data set [1] is T1, reuptake of noradrenaline (NA) in synaptosomes (Rattus norvegicus, UniProt Q63380).
T1 construct: in synaptosomes as described in WO 97/16451; from tissue
The data set is described as follows: Inhibition of noradrenaline reuptake in synaptosomes. In kind it is biochemical.

For data set [2], the target named is T2, reuptake of serotonine (5-HT) in synaptosomes (Rattus norvegicus, UniProt P31652).
T2 construct: in synaptosomes as described in WO 97/16451; from tissue
T2 sequence (P31652 whole entry): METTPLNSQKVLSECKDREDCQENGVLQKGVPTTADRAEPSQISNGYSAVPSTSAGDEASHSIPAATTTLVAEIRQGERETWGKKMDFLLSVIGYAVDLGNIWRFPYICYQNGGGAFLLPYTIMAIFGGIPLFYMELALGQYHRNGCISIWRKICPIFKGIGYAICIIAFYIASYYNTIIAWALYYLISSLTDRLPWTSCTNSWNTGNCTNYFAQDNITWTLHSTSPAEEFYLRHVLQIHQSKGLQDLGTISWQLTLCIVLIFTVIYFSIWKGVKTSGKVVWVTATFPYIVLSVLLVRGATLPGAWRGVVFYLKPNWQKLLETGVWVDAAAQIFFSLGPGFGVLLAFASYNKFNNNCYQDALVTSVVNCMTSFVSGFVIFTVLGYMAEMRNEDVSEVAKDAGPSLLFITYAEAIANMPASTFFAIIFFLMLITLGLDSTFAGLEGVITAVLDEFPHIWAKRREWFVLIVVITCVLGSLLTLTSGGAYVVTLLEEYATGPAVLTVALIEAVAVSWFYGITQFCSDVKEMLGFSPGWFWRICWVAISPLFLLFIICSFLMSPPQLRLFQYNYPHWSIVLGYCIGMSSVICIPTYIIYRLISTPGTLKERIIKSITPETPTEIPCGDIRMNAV
In words: Inhibition of serotonin reuptake in synaptosomes. The data set is classed as biochemical. As to the method:
A number of compounds were tested for their ability to inhibit the reuptake of the monoamine neurotransmitters dopamine (DA) noradrenaline (NA) and serotonine (5-HT) in synaptosomes as described in WO 97/16451.
The test values are given as IC50 (the concentration (μM) of the test substance which inhibits the specific binding of ^3H-DA, ^3H-NA, or ^3H-5-HT by 50%).

For data set [3], the target named is T3, reuptake of dopamine (DA) in synaptosomes (Rattus norvegicus, UniProt P23977).
T3 construct: in synaptosomes as described in WO 97/16451; from tissue
T3 sequence (P23977 whole entry): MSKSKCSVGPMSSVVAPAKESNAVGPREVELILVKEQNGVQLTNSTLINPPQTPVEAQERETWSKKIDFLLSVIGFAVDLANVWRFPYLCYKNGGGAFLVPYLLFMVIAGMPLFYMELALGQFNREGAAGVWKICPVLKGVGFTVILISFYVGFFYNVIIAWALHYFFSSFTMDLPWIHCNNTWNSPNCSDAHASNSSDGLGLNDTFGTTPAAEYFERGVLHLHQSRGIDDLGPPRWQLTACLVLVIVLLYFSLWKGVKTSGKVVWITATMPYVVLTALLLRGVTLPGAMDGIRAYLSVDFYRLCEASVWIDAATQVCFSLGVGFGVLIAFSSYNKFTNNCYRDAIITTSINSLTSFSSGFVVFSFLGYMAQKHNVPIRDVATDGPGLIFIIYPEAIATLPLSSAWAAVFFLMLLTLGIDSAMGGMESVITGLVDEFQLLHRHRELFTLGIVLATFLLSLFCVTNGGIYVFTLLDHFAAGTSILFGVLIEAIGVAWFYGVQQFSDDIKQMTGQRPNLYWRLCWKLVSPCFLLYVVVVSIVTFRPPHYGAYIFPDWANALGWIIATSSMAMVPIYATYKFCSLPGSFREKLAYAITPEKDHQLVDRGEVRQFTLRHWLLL
In words: Inhibition of dopamine reuptake in synaptosomes. In kind it is biochemical. As to conditions: 3H-DA, read-out: DA-uptake IC50.

Setting [4] is: synaptosomes, 3H-NA, read-out: NA-uptake IC50.

Structures can show the parent of a compound that is named as a salt. Where two headings read alike, the source gives them in different places.

T1 sequence (Q63380 1-617): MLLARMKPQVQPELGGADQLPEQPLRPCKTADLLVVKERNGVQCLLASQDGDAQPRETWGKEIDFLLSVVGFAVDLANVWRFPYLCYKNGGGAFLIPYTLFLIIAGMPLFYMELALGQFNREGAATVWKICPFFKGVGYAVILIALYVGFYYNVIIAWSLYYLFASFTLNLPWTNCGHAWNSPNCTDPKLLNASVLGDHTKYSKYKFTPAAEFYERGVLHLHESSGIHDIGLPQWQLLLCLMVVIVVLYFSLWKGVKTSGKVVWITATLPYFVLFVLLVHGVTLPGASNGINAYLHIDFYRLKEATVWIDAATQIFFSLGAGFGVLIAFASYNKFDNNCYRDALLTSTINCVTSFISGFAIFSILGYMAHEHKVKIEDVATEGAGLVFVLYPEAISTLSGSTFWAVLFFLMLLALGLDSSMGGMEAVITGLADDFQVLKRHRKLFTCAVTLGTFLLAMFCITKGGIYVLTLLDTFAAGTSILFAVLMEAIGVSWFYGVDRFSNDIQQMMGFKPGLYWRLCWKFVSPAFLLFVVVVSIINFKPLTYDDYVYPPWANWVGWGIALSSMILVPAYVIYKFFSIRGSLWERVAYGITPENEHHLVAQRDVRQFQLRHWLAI

Turning to `CN1C2CCCC1CN(c1ccc3ccccc3n1)C2` (as salt: fumaric acid salt) [2nd compound of Method A, 9-Methyl-3-quinolin-2-yl-3,9-diaza-bicyclo[3.3.1]nonane], the melting point (as a rule, the temperature, or range, at which the solid turns liquid) lay in the range of 170.2 to 176.9 °C.

Regarding `O=[N+]([O-])c1ccc2nc(N3CC4CCCC(C3)N4)ccc2c1` [1st compound of Method B, 3-(6-Nitro-quinolin-2-yl)-3,9-diaza-bicyclo[3.3.1]nonane], the results for the IC50 in data set [1] (setting [4]), in data set [2] and in data set [3] were 1.2 µM, 0.0009 µM and over 1 µM, respectively.

For the molecule `CN1C2CCCC1CN(c1ccc3ccccc3n1)C2` [2nd compound of Method A, 9-Methyl-3-quinolin-2-yl-3,9-diaza-bicyclo[3.3.1]nonane], the IC50 – broadly, the concentration needed to halve the response being measured – in data set [1] (setting [4]) was 0.14 µM; in data set [2], 0.0077 µM; in data set [3], over 1 µM.

For the molecule `COc1ccc2nc(N3CC4CCCC(C3)N4C)ccc2c1` [5th compound of Method A, 3-(6-Methoxy-quinolin-2-yl)-9-methyl-3,9-diaza-bicyclo[3.3.1]nonane], the IC50 in data set [1] turned out to be 0.1 µM; in data set [2] it was 0.026 µM; in data set [3] it was 1.8 µM.

The values above are taken from US7687517B2, “3,9-Diazabicyclo [3.3.1] nonane derivatives and their use as monoamine neurotransmitter re-uptake inhibitors” (Neurosearch A/S, priority 2006, dated 2010).
